Experimental data as given in US6884601B1, “Method to detect fertilization potential of sperm” (priority 1999, dated 2005).

Biological target: T1, phospholipid hydroperoxide glutathione peroxidase (PHGPx) (Rattus norvegicus, UniProt P36970)
T1 construct: from tissue; host or cells: Wistar rat: cells from seminiferous tubules of the testis, epididymal spermatozoa, sperm mitochondrial capsule
T1 sequence (P36970 3-170 isoform P36970-2 limits assumed): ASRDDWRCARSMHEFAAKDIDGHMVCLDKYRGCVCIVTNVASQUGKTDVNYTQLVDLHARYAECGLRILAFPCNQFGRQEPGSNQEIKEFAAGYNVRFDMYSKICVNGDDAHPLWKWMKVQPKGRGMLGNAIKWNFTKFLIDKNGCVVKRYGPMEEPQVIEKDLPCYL
Assay: PHGPx activity after solubilisation/reduction with thiols (phosphatidylcholine hydroperoxide substrate)
Format: biochemical
Settings: for PHGPx activity: 6M guanidine-HCl, pH 7.5, 4° C., 10 min
Description: In fact, the specific activities thus obtained from mitochondrial capsules exceed, by a factor of 20, the highest values ever measured, i.e. in spermatogenic cells. Nevertheless, this extreme PHGPx activity is still low compared to its content in PHGPx protein.
Spermatozoa of four month old Wistar rats (about 300 grams of body weight) were collected by squeezing cauda epididymis and vas deferens in phosphate buffer saline (PBS) and by centrifugating at 600×g for 10 minutes. Cell and sperm pellets were layered on a discontinous 45%, 70% and 95% Percoll gradient and centrifugated at 300×g for 20 min. Spermatogenic cells stacked on top of the gradient, while spermatozoa separated into the 70% Percoll layer. Cells from seminiferous epithelium were prepared as follows (26): testes were deprived of albuginea, seminiferous tubules were cut into small pieces in PBS containing 0.250 mg/ml collagenase, and incubated twice 25° C. for 15 min. Cells then were filtered through a stainless steel screen (140 μm pore), washed in PBS and centrifugated at 300×g for 10 min. Sperm mitochondrial capsule was prepared according to Calvin et al. (1): sperms were resuspended in 0.05 M Tris-HCl pH 8.0 at the concentration of 10^6 cells/ml and treated with trypsin (0.2 mg/ml) for 10 minutes. After stopping the protease action with trypsin inhibitor (0.5 mg/ml) and SDS (10 mg/ml) sperms were centrifugated at 1,500×g for 10 minutes. Pellets were resuspended in 0.05 M Tris-HCl, pH 8.5 containing 1% sodium dodecyl sulphate (SDS), and 0.2 mM DTT and kept under continuous stirring for 30 minutes. Following centrifugation at 4,500×g for 15 min, the resulting supernatant was layered on a 1.6 M sucrose cushion. After centrifugation for 20 min at 18,000×g in a swinging rotor, sperm capsules were collected as a band at the top of the sucrose cushion, washed in Tris-HCl, pH 8.0 and spun at 140,000×g.
When applicable, PHGPx was also identified by activity measurement according to (28) using the specific substrate phosphatidylcholine hydroperoxide.

[1] = 0.1 M thiol in the presence of guanidine, measured after elimination of denaturating and reducing agents

Compound: N[C@@H](CCC(=O)N[C@@H](CS)C(=O)NCC(=O)O)C(=O)O [glutathione]
- Reactivation of latent PHGPx of sperm mitochondrial capsule / mature spermatozoa (glutathione in the low millimolar range, conventional test conditions): neither reactivated

Compound: OCCS [2-mercaptoethanol]
- Reactivation of latent PHGPx of sperm mitochondrial capsule / mature spermatozoa [1]: regenerate a significant PHGPx activity
- PHGPx activity (Cells from seminiferous tubules, 5 mM 2-mercaptoethanol, mean and S.D. of five): 250 ± 10 mU/mg protein
- PHGPx activity (Cells from seminiferous tubules, 100 mM 2-mercaptoethanol, mean and S.D. of five): 260 ± 10 mU/mg protein
- PHGPx activity (Mitochondrial capsule, 5 mM 2-mercaptoethanol): undetectable
- PHGPx activity (Mitochondrial capsule, 100 mM 2-mercaptoethanol, mean and S.D. of five): 5,600 ± 290 mU/mg protein
- PHGPx activity (Spermatozoa from tail of epididymis, 5 mM 2-mercaptoethanol): undetectable
- PHGPx activity (Spermatozoa from tail of epididymis, 100 mM 2-mercaptoethanol, mean and S.D. of five): 3,140 ± 200 mU/mg protein

Compound: O[C@H](CS)[C@H](O)CS (racemic) [dithiothreitol]
- Reactivation of latent PHGPx of sperm mitochondrial capsule / mature spermatozoa [1]: regenerate a significant PHGPx activity
